# Experiments:
# [1] = tested on: barnyardgrass (Echinochloa crus-galli); experiment: Test C pre-/postemergence: barnyardgrass; assay type: in vivo; settings: Preemergence, 250 g ai/ha; scale 0 to 100, 0 no effect, 100 complete control
# Description: (§1) Seeds of plant species selected from blackgrass (Alopecurus myosuroides), bromegrass, downy (downy bromegrass, Bromus tectorum), foxtail, green (green foxtail, Setaria viridis), ryegrass, Italian (Italian ryegrass, Lolium multiflorum), winter wheat (Triticum aestivum), wild oat (Avena fatua), galium (catchweed bedstraw, Galium aparine), bermudagrass (Cynodon dactylon), surinam grass (Brachiaria decumbens), cocklebur (common cocklebur, Xanthium strumarium), corn (Zea mays), large crabgrass (Digitaria sanguinalis), woolly cupgrass (Eriochloa villosa), foxtail, giant (giant foxtail, Setaria faberii), goosegrass (Eleusine indica), johnsongrass (Sorghum halepense), kochia (Kochia scoparia), lambsquarters (Chenopodium album), morningglory (Ipomoea coccinea), nightshade (eastern black nightshade, Solanum ptycanthum), nutsedge, yellow (yellow nutsedge, Cyperus esculentus), pigweed (Amaranthus retroflexus), ragweed (common ragweed, Ambrosia elation), soybean (Glycine max), common (oilseed) sunflower (Helianthus annuus), Russian thistle (Salsola kali) and velvetleaf (Abutilon theophrasti) were planted into a blend of loam soil and sand and treated preemergence with test chemicals formulated in a non-phytotoxic solvent mixture which included a surfactant.
# (§2) At the same time, plants selected from these crop and weed species and also barley (winter barley, Hordeum vulgare), canarygrass (Phalaris minor), chickweed (common chickweed, Stellaria media) windgrass (Apera spica-venti) and deadnettle (henbit deadnettle, Lamium amplexicaule) were planted in pots containing Redi-Earth® planting medium (Scotts Company, 14111 Scottslawn Road, Marysville, Ohio 43041) comprising spaghnum peat moss, vermiculite, wetting agent and starter nutrients and treated with postemergence applications of test chemicals formulated in the same manner. Plants ranged in height from 2 to 18 cm (1- to 4-leaf stage) for postemergence treatments.
# (§3) Treated plants and controls were maintained in a greenhouse for 13 to 15 days, after which time all species were compared to controls and visually evaluated. Plant response ratings, summarized in Table C, are based on a scale of 0 to 100 where 0 is no effect and 100 is complete control. A dash (-) response means no test result.
# [2] = tested on: Oilseed Rape; experiment: Test C pre-/postemergence: oilseed rape; assay type: in vivo; settings: Preemergence, 250 g ai/ha; scale 0 to 100, 0 no effect, 100 complete control
# Description: as §1, §2, §3
# [3] = tested on: Oilseed Rape; experiment: Test C preemergence: oilseed rape; assay type: in vivo, Brassica napus; settings: 125 g ai/ha, scale 0 to 100, 0 no effect, 100 complete control
# [4] = tested on: Oilseed Rape; experiment: Test C preemergence: oilseed rape; assay type: in vivo; settings: scale of 0 to 100, 0 is no effect, 100 is complete control
# Description: as §1, §3
# [5] = tested on: Barnyardgrass; experiment: Test C postemergence: barnyardgrass; assay type: in vivo, Echinochloa crus-galli
# Description: as §2, §3
# [6] = tested on: Barnyardgrass; experiment: Test C postemergence: barnyardgrass; assay type: in vivo, Echinochloa crus-galli; settings: 125 g ai/ha, scale 0 to 100, 0 no effect, 100 complete control
# Description: as §1, §2, §3
# [7] = tested on: Oilseed Rape; experiment: Test C postemergence: oilseed rape; assay type: in vivo
# Description: as §2, §3
# [8] = tested on: Waterhemp; experiment: Test C postemergence: waterhemp; assay type: in vivo
# Description: as §2, §3
# [9] = tested on: Waterhemp; experiment: Test C postemergence: waterhemp; assay type: in vivo, Amaranthus rudis; settings: 125 g ai/ha, scale 0 to 100, 0 no effect, 100 complete control
# Description: as §1, §2, §3
# [10] = tested on: foxtail, green (green foxtail, Setaria viridis); experiment: Test C pre-/postemergence: foxtail, green; assay type: in vivo
# In short: (§4)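 Preemergence on seeds in loam/sand, postemergence on 2–18 cm (1–4-leaf) plants in peat-based medium; compounds in non-phytotoxic solvent with surfactant. After 13–15 days in greenhouse, visual rating versus controls, 0 (no effect) to 100 (complete control).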
# [11] = tested on: bermudagrass (Cynodon dactylon); experiment: Test C pre-/postemergence: bermudagrass; assay type: in vivo
# In short: as §4
# [12] = tested on: surinam grass (Brachiaria decumbens); experiment: Test C pre-/postemergence: surinam grass; assay type: in vivo
# In short: as §4
# [13] = tested on: cocklebur (common cocklebur, Xanthium strumarium); experiment: Test C pre-/postemergence: cocklebur; assay type: in vivo
# In short: as §4
# [14] = tested on: goosegrass (Eleusine indica); experiment: Test C pre-/postemergence: goosegrass; assay type: in vivo
# In short: as §4
# [15] = tested on: nightshade (eastern black nightshade, Solanum ptycanthum); experiment: Test C pre-/postemergence: nightshade; assay type: in vivo; settings: Preemergence
# In short: as §4
# [16] = tested on: common (oilseed) sunflower (Helianthus annuus); experiment: Test C pre-/postemergence: sunflower; assay type: in vivo; settings: Preemergence
# In short: as §4
# [17] = tested on: barley (winter barley, Hordeum vulgare); experiment: Test C postemergence: barley; assay type: in vivo
# In short: (§5)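 Crop and weed plants were grown in peat-vermiculite medium and treated postemergence at the 1- to 4-leaf stage (2-18 cm tall). After 13-15 days in a greenhouse, each species was rated visually against untreated controls on a 0-100 scale (0 no effect, 100 complete control).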
# [18] = tested on: canarygrass (Phalaris minor); experiment: Test C postemergence: canarygrass; assay type: in vivo
# In short: as §5
# [19] = tested on: windgrass (Apera spica-venti); experiment: Test C postemergence: windgrass; assay type: in vivo
# In short: as §5
# [20] = tested on: deadnettle (henbit deadnettle, Lamium amplexicaule); experiment: Test C postemergence: deadnettle; assay type: in vivo
# In short: as §5
# [21] = 31 g ai/ha, scale 0 to 100 (0 no effect, 100 complete control)
# [22] = 62 g ai/ha, scale 0 to 100 (0 no effect, 100 complete control)
# [23] = Postemergence, 31 g ai/ha, scale 0 to 100 (0 no effect, 100 complete control)
# [24] = Postemergence, 62 g ai/ha, scale 0 to 100 (0 no effect, 100 complete control)
# [25] = Postemergence, 125 g ai/ha, scale 0 to 100, 0 no effect, 100 complete control
# [26] = Postemergence, 250 g ai/ha, scale 0 to 100 (0 no effect, 100 complete control)
# [27] = Preemergence, 31 g ai/ha, scale 0 (no effect) to 100 (complete control)
# [28] = Preemergence, 62 g ai/ha, scale 0 to 100, 0 no effect, 100 complete control
# [29] = Preemergence, 125 g ai/ha, scale 0 to 100, 0 no effect, 100 complete control
# [30] = Preemergence, 250 g ai/ha, scale 0 to 100, 0 no effect, 100 complete control
# [31] = Postemergence, 250 g ai/ha, scale 0 to 100
# [32] = 31 g ai/ha, scale 0 (no effect) to 100 (complete control)
# [33] = 62 g ai/ha, scale 0 to 100, 0 no effect, 100 complete control
# [34] = 125 g ai/ha, scale 0 to 100, 0 no effect, 100 complete control
# [35] = 250 g ai/ha, scale 0 to 100, 0 no effect, 100 complete control
compound,measurement,setting,value
CCOCc1nn(-c2ccc(F)cc2)nc1Oc1ccnc(C(F)(F)F)c1 [Compound 163],"Plant response rating, Barnyardgrass",[1],100
same,"Plant response rating, Oilseed Rape",[2],95
same,"Plant response rating, Oilseed Rape",[3],80
same,"Plant response rating, Oilseed Rape",[4]; 31 g ai/ha,0
same,"Plant response rating, Oilseed Rape",[4]; 62 g ai/ha,50
"CCOc1nn(-c2ccc(C(F)(F)F)cc2)nc1Cc1ccnc(C(F)(F)F)c1 [Compound 164, 4-[[5-ethoxy-2-[4-(trifluoromethyl)phenyl]-2H-1,2,3-triazol-4-yl]methyl]-2-(trifluoromethyl)pyridine]","Plant response rating, Barnyardgrass",[5]; [21],5
same,"Plant response rating, Barnyardgrass",[5]; [22],10
same,"Plant response rating, Barnyardgrass","[5]; 250 g ai/ha, scale 0 to 100",10
same,"Plant response rating, Barnyardgrass",[6],10
same,"Plant response rating, Oilseed Rape",[7]; [21],5
same,"Plant response rating, Oilseed Rape",[7]; [22],5
same,"Plant response rating, Oilseed Rape","[7]; 250 g ai/ha, scale 0 to 100",25
same,"Plant response rating, Waterhemp",[8]; [21],35
same,"Plant response rating, Waterhemp",[8]; [22],65
same,"Plant response rating, Waterhemp","[8]; 250 g ai/ha, scale 0 to 100",75
same,"Plant response rating, Waterhemp",[9],65
same,"Plant response rating, Barnyardgrass",[1],70
same,"Plant response rating, Oilseed Rape",[2],30
same,"Plant response rating, Oilseed Rape",[4]; 62 g ai/ha,5
"CCOc1nn(-c2ccc(F)cc2)nc1Cc1ccnc(C(F)(F)F)c1 [Compound 196, 4-[[5-ethoxy-2-(4-fluorophenyl)-2H-1,2,3-triazol-4-yl]methyl]-2-(trifluoromethyl)pyridine]","Plant response rating, Foxtail, Green",[10]; [23],100
same,"Plant response rating, Foxtail, Green",[10]; [24],100
same,"Plant response rating, Foxtail, Green",[10]; [25],100
same,"Plant response rating, Foxtail, Green",[10]; [26],100
same,"Plant response rating, Foxtail, Green",[10]; [27],90
same,"Plant response rating, Foxtail, Green",[10]; [28],90
same,"Plant response rating, Foxtail, Green",[10]; [29],90
same,"Plant response rating, Foxtail, Green",[10]; [30],90
same,"Plant response rating, Bermudagrass",[11]; [23],80
same,"Plant response rating, Bermudagrass",[11]; [24],80
same,"Plant response rating, Bermudagrass",[11]; [25],85
same,"Plant response rating, Bermudagrass",[11]; [31],90
same,"Plant response rating, Bermudagrass",[11]; [27],98
same,"Plant response rating, Bermudagrass",[11]; [28],98
same,"Plant response rating, Bermudagrass",[11]; [29],100
same,"Plant response rating, Bermudagrass",[11]; [30],100
same,"Plant response rating, Surinam Grass",[12]; [23],35
same,"Plant response rating, Surinam Grass",[12]; [24],70
same,"Plant response rating, Surinam Grass",[12]; [25],70
same,"Plant response rating, Surinam Grass",[12]; [26],75
same,"Plant response rating, Surinam Grass",[12]; [27],90
same,"Plant response rating, Surinam Grass",[12]; [28],98
same,"Plant response rating, Surinam Grass",[12]; [29],100
same,"Plant response rating, Surinam Grass",[12]; [30],100
same,"Plant response rating, Cocklebur",[13]; [23],55
same,"Plant response rating, Cocklebur",[13]; [24],60
same,"Plant response rating, Cocklebur",[13]; [25],65
same,"Plant response rating, Cocklebur",[13]; [31],75
same,"Plant response rating, Cocklebur",[13]; [27],5
same,"Plant response rating, Cocklebur",[13]; [29],45
same,"Plant response rating, Cocklebur",[13]; [30],75
same,"Plant response rating, Goosegrass",[14]; [23],75
same,"Plant response rating, Goosegrass",[14]; [24],75
same,"Plant response rating, Goosegrass",[14]; [25],80
same,"Plant response rating, Goosegrass",[14]; [26],85
same,"Plant response rating, Goosegrass",[14]; [27],100
same,"Plant response rating, Goosegrass",[14]; [28],100
same,"Plant response rating, Goosegrass",[14]; [29],100
same,"Plant response rating, Goosegrass",[14]; [30],100
same,"Plant response rating, Nightshade",[15]; [32],100
same,"Plant response rating, Nightshade",[15]; [33],100
same,"Plant response rating, Nightshade",[15]; [34],100
same,"Plant response rating, Nightshade",[15]; [35],100
same,"Plant response rating, Sunflower",[16]; [32],5
same,"Plant response rating, Sunflower",[16]; [33],20
same,"Plant response rating, Sunflower",[16]; [34],30
same,"Plant response rating, Sunflower",[16]; [35],40
same,"Plant response rating, Barley",[17]; [21],30
same,"Plant response rating, Barley",[17]; [22],40
same,"Plant response rating, Barley",[17]; [34],45
same,"Plant response rating, Barley","[17]; 250 g ai/ha, scale 0 to 100",50
same,"Plant response rating, Canarygrass",[18]; [21],80
same,"Plant response rating, Canarygrass",[18]; [22],90
same,"Plant response rating, Canarygrass",[18]; [34],90
same,"Plant response rating, Canarygrass","[18]; 250 g ai/ha, scale 0 to 100",90
same,"Plant response rating, Windgrass",[19]; [21],80
same,"Plant response rating, Windgrass",[19]; [22],80
same,"Plant response rating, Windgrass",[19]; [34],95
same,"Plant response rating, Windgrass","[19]; 250 g ai/ha, scale 0 to 100 (0 no effect, 100 complete control)",95
same,"Plant response rating, Deadnettle",[20]; [21],100
same,"Plant response rating, Deadnettle",[20]; [22],100
same,"Plant response rating, Deadnettle",[20]; [34],100
same,"Plant response rating, Deadnettle","[20]; 250 g ai/ha, scale 0 to 100",100

# Reference: patent US9302999B2, “Substituted triazoles as herbicides” (E. I. DU PONT DE NEMOURS AND COMPANY, priority 2012, dated 2016)
